Measured values published in article PMC2206373, “Identification of an altered peptide ligand based on the endogenously presented, rheumatoid arthritis-associated, human cartilage glycoprotein-39(263–275) epitope: an MHC anchor variant peptide for immune modulation” (Arthritis Research & Therapy, 2007).
pIC50: −log10 of the molar value. Where two headings read alike, the source gives them in different places. No end group written: not given here.

Assays:
[1] = system: popliteal lymph node cells from HC gp-39(263–275)-immunized huCD4, HLA-DR4 transgenic mice; experiment: Antigen-specific cytokine production of popliteal lymph node cells from WT peptide-immunized mice; assay type: cell-based, mouse; details: for IFNγ concentration / MIP1α concentration / RANTES concentration: 96 h supernatant, Luminex
Protocol: (§1) Mice, obtained from L Fugger (Oxford, UK), were immunized in the hind footpads with 2 × 50 μg of purified recombinant HC gp-39, with 2 × 100 μg of the WT peptide or with 2 × 100 μg of the APL (F265(Dip); compound 28; Figure 1) mixed in IFA. Seven days later, popliteal lymph node cell suspensions (1 to 2 × 10^5 cells/well) were stimulated in vitro with HC gp-39 (50, 10 or 2 μg/ml), HC gp-39(263–275) or APL (10, 2 and 0.4 μg/ml). At 96 h, 50 μl of culture medium was harvested for analysis of antigen-specific cytokine production using Luminex technology (mouse cytokine 18 Plex Panel, catalogue no. 171-F11181, Biorad, Bio-Rad Laboratories, Hercules, CA, USA). In addition, cultures were labelled with tritiated thymidine (for 18 h) and antigen-specific proliferation was determined. We state that all animal experimentation received ethics approval and animals were treated according to the recognized guidelines.

[2] = system: popliteal lymph node cells from HC gp-39(263–275)-immunized huCD4, HLA-DR4 transgenic mice; experiment: Antigen-specific proliferation of popliteal lymph node cells from WT peptide-immunized mice; assay type: cell-based, mouse; details: 96 h, tritiated thymidine, background 407 cpm, SI > 2 positive, SD not above 30%
Protocol: as §1

[3] = system: popliteal lymph node cells from F265(Dip)-immunized HLA-DR4trg mice; experiment: Antigen-specific proliferation of popliteal lymph node cells from F265(Dip)-immunized mice; assay type: cell-based, mouse; details: Figure 4b
Protocol: as §1

B1*0405 = details: cited from earlier work
Description: (§2) Four TCR contact sites (Ala268, Ser269, Glu271 and Thr272) are important for polyclonal T cell activation. No information is available on important residues in the MHC α-chain, but for the β chain information on MHC restriction can be used (data not shown). The peptide does bind to HLA-DRB1*0402, B1*0405 and B1*0101 [7]. […] This leads to the view of the MHC-peptide complex in Figure 3b. Some of these MHC β-chain residues are th ...

HLA-DRB1*0402 = HLA-DRB1*0402 (Homo sapiens, UniProt P01903+P01911, A100E/A169T/F76Y/K127E/L162R/M171V/N62H/P40V/Q125Y/Q99D/R42H/S133A/S149N/S66Y/V209L/W38E); details: cited from earlier work
Description: as §2

B1*0101 = details: cited from earlier work
Description: as §2

T cell hybridoma 20H5 = experiment: T hybridoma 20H5 IL-2 response; assay type: cell-based, mouse; details: for Hybridoma response (SI) 20H5: IL-2 by ELISA after 48 h, peptide 10 μg/ml, DRB1*0401 BLCL as APC, SI > 2 positive
Protocol: (§3) The T cell hybridomas, provided by G Sonderstrup (Stanford, CA, USA), were generated as described. In brief, human CD4, HLA-DRA*101/HLA-DRB*0401 triple transgenic (HLA-DR4trg) mice (devoid of I-Aβ) were immunized in the footpad with 50 μg of purified HC gp-39 mixed in incomplete Freund's adjuvant (IFA). Draining lymph nodes were isolated and T-cell hybridomas were generated by polyethylene glycol fusion of primed and in vitro antigen-restimulated lymph node cells with the AKR BW5147 fusion partner. Following fusion, growth-positive hybridoma wells were screened for reactivity to HC gp-39 and a set of 55 peptides (16 amino acids in length) covering the entire HC gp-39 sequence. HLA-DR4(B1*0401)-restricted hybridomas responsive to both the HC gp-39 protein and the immunodominant epitope 263–275 of HC gp-39 (for example, 5G11, 8B12, 14G11 and 20H5) were cloned, subcloned, characterised and selected for further study.
(§4) HC gp-39-specific IL-2 production by T hybridomas was measured in wells of round-bottomed microtiter plates. Hybridoma cells (2 to 5 × 10^4) and irradiated APC (0.5 to 1 × 10^5; 12,000 to 16,000 RAD) from the B lymphoblastoid cell line (BLCL) carrying the DRB1*0401 specificity were incubated in 150 μl volumes. Antigen was added in 50 μl volumes to duplicate wells. After 48 h, 100 μl of the culture supernatant was assayed for IL-2 production using a sandwich ELISA with Pharmingen antibodies specific for mouse IL-2. The antigen sensitivity of the hybridomas to both peptide and protein was determined (Figure 2). […] In later assays, an excess of peptide or APL (10 μg/ml), inducing maximal responses in all hybridomas, was tested.

HLA-DR4(B1*0401) = HLA-DR4(B1*0401) (Homo sapiens, UniProt P01903+P01911, A100K/A169T/F76Y/I96L/K127E/L162R/M171V/N62H/P40V/Q125Y/R42H/S133A/S149N/S66Y/V115G/V209L/W38E); experiment: HLA-DR4 competition peptide binding assay; details: competition with biotinylated HA307-319 (Y309F) 50 nM, purified HLA-DR4 30 nM, pH 5, 48 h, room temperature
Protocol: HLA-DR bound marker peptide was separated from free marker peptide and the amount of bound marker peptide was detected and quantified by enhanced chemoluminescense. Inhibition curves were generated and the IC50 was determined. The concentration of competitor peptide inducing 50% inhibition of marker peptide binding was determined, and expressed as the 50% inhibitory concentration (IC50 in μM).

[4] = system: popliteal lymph node cells from F265(Dip)-immunized HLA-DR4trg mice; experiment: Antigen-specific cytokine production of popliteal lymph node cells from F265(Dip)-immunized mice; assay type: cell-based, mouse; details: Figure 4b
Protocol: as §1

T cell hybridoma 14G11 = experiment: T hybridoma 14G11 IL-2 response; assay type: cell-based, mouse; details: for Hybridoma response (SI) 14G11: IL-2 by ELISA after 48 h, peptide 10 μg/ml, SI > 2 positive
Protocol: as §3, §4

[5] = Figure 4a, WT peptide-immunized HLA-DR4trg mice
[6] = Figure 2a dose response, IL-2 ELISA after 48 h

RSFTLASSETGVG [Compound 1, HC gp-39(263–275)]
Ex vivo recall IFNγ production in words [1, 5]: significant levels | Ex vivo recall Mip1α production in words [1, 5]: significant levels | Ex vivo recall RANTES production in words [1, 5]: significant levels | IFNγ concentration ([1]; peptide 0.4 μg/ml): <5 pg/mL | MIP1α concentration ([1]; peptide 0.4 μg/ml): 25 pg/mL | RANTES concentration ([1]; peptide 0.4 μg/ml): 6 pg/mL | IFNγ concentration ([1]; peptide 2 μg/ml): 6 pg/mL | MIP1α concentration ([1]; peptide 2 μg/ml): 128 pg/mL | RANTES concentration ([1]; peptide 2 μg/ml): 13 pg/mL | IFNγ concentration ([1]; peptide 10 μg/ml): 16 pg/mL | MIP1α concentration ([1]; peptide 10 μg/ml): 252 pg/mL | RANTES concentration ([1]; peptide 10 μg/ml): 23 pg/mL | Prol (SI) ([2]; peptide 0.4 μg/ml): 3 SI | Prol (SI) ([2]; peptide 2 μg/ml): 6 SI | Prol (SI) ([2]; peptide 10 μg/ml): 8 SI | In vitro recall proliferative response in words [3]: somewhat less | Binding to HLA-DRB1*0405 in words (B1*0405): does bind | Binding to HLA-DRB1*0402 in words (HLA-DRB1*0402): does bind | Binding to HLA-DRB1*0101 in words (B1*0101): does bind | Peptide concentration for half maximal stimulation (IL-2), 20H5 (T cell hybridoma 20H5; [6]): 0.02 µg/mL | Hybridoma response (SI) 20H5 (T cell hybridoma 20H5; Table 1, background 35,749 counts, representative of at least three experiments): 26 SI | Hybridoma response (SI) 20H5 (T cell hybridoma 20H5; Table 2, background 290,666 counts, SD not above 15%): 5 SI | pIC50 (HLA-DR4(B1*0401); Figure 1, read-out: DRB1*0401 binding IC50): 8.00 | pIC50 (HLA-DR4(B1*0401); Table 1, geometric mean of two experiments, read-out: HLA-DR binding IC50): 6.92 | In vitro recall IFNγ production in words [4]: failed to induce significant levels | In vitro recall Mip1α production in words [4]: failed to induce significant levels | In vitro recall RANTES production in words [4]: failed to induce significant levels | T hybridoma (SI) 14G11 (T cell hybridoma 14G11; Figure 1, IL-2 production, DRB1*0401 BLCL as APC, duplicate or triplicate, background 7,152 counts, ±30% of WT response = super/partial agonist): 35 SI | Peptide concentration for half maximal stimulation (IL-2), 14G11 (T cell hybridoma 14G11; [6]): 0.26 µg/mL | Hybridoma response (SI) 14G11 (T cell hybridoma 14G11; Table 1, DRB1*0401 BLCL as APC, background 8,598 counts, representative of at least three experiments): 15 SI | Hybridoma response (SI) 14G11 (T cell hybridoma 14G11; Table 2, DRB1*0401 BLCL as APC, background 10,131 counts, SD not above 15%): 30 SI
